The results in this text go back to paper PMC6556873, “Rapid Covalent-Probe Discovery by Electrophile-Fragment Screening” (Journal of the American Chemical Society, 2019).

One may read the viability as a read-out of living cells in per cent, often relative to untreated cells.

Where two headings read alike, the source gives them in different places.

For series [1], the target named is T1, BSA (Bos taurus, UniProt P02769).
T1 construct: gene ALB
On the set-up: Intact protein LC/MS covalent labelling, fragments in pools of five, 200 uM each, 4 °C. To be noted: 24 h, 4 °C, pool of five; 200 µM; covalent. The protocol: (§1) Incubations were performed at 200 μM for each compound and 2 μM of protein (10 μM for BSA) for 24 h at 4 °C with moderate shaking. Incubation buffers varied among proteins (PBS pH 7.4 for QSOX1 and BSA; 10 mM HEPES pH 7.5, 0.3 M NaCl, 0.5 mM TCEP for PCAF, UPS8, and NUDT7; […]; 10 mM Na2HPO4 pH 7.5 100 mM NaCl 5 mM β-mercaptoethanol for NV3CP; 20 mM Na phosphate pH 7.5 for NNMT; […]. The reaction was stopped by quenching with formic acid, 0.4% final concentration. Each protein was incubated with the electrophilic library in pools of five compounds per well. The pool’s composition maximized the difference in mass between fragments in the same well. Incubations were performed with each fragment at 200 μM, for 24 h at 4 °C, to allow the screening of proteins that are not stable for long time periods at higher temperatures. Following incubation, we used intact protein [compound left out] chromatography/mass spectrometry (LC/MS) to identify the fragments and quantify their labeling (Figure 3A). […] There was good agreement between the percent of labeling of NUDT7 by 100 random individual compounds and that obtained in pools of five (R^2=0.78; Figure S6 and Data set 2 in the Supporting Information).

The target of series [2] is T2, NUDT7 (Homo sapiens, UniProt P0C024).
T2 construct: residues 14-235, E. coli, pNIC28-Bsa4, N-terminal His6 tag removed by TEV, construct 26672 Da
On the set-up: Intact protein LC/MS covalent labelling, fragments in pools of five, 200 uM each, 4 °C. To be noted: 24 h, 4 °C, pool of five; 200 µM; covalent. The protocol:
as §1

Series [3] addresses T3, PCAF (Homo sapiens, UniProt Q92831).
T3 construct: gene KAT2B
On the set-up: Intact protein LC/MS covalent labelling, fragments in pools of five, 200 uM each, 4 °C. The following applies: 24 h, 4 °C, pool of five; 200 µM; covalent. On the procedure: as §1

Series [4] can be described thus: in vitro. On the set-up: species or system CCD841, HEK293. To be noted: human, hb2 cells, read-out: HB-2 Cells Viability (%).
The nature of series [5]: in vitro. On the set-up: species or system HB2, HEK293. To be noted: human, ccd841 cells.
Series [6] can be described thus: in vitro. On the set-up: species or system HB2, CCD841. To be noted: human, hek293 cells.

T3 sequence (Q92831 whole entry): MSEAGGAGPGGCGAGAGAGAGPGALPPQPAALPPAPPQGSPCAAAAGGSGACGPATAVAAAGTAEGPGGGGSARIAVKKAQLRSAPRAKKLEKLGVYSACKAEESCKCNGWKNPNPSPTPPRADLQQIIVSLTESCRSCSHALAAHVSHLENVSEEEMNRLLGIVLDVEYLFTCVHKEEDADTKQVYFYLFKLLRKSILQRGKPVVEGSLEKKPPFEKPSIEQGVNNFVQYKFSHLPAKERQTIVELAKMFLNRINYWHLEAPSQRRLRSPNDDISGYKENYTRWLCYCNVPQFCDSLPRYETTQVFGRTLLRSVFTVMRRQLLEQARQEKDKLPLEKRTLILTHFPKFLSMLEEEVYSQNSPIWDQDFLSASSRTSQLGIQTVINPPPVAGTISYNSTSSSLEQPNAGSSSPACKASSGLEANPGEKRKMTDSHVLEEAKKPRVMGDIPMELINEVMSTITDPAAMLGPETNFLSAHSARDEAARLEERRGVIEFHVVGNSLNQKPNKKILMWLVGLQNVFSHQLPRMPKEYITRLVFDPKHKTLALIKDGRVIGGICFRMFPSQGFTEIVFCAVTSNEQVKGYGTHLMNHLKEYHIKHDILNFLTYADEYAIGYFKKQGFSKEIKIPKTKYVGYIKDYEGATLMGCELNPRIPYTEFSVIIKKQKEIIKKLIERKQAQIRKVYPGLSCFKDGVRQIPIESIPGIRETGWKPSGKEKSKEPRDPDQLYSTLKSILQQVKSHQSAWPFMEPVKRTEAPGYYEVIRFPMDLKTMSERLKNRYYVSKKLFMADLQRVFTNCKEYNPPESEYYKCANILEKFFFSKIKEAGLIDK
T2 sequence (P0C024 14-235): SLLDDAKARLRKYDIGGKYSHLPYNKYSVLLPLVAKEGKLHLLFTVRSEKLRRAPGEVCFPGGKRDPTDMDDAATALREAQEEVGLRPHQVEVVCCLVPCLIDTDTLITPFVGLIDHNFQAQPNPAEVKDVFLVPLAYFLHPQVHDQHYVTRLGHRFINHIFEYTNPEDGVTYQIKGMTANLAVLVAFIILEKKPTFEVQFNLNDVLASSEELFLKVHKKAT
T1 sequence (P02769 whole entry): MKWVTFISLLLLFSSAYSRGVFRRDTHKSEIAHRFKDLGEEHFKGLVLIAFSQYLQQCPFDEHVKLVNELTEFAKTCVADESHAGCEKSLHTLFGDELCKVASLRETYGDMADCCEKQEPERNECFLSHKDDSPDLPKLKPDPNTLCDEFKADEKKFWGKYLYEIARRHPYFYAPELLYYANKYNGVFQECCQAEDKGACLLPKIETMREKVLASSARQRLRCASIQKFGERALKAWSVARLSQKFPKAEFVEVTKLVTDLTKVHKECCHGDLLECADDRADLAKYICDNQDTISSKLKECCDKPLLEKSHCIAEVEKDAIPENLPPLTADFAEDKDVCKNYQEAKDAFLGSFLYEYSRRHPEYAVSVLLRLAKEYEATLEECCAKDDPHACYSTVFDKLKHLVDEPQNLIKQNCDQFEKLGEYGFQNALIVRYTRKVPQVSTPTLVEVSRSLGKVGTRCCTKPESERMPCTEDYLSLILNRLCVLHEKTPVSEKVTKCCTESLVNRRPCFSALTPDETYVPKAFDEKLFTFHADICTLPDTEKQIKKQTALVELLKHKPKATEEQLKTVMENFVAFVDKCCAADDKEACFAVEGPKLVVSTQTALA

For `C=CC(=O)N1CCCC(c2nc(C(F)(F)F)cn2C)C1` (stereo not drawn) [PCM-0102633], the BSA in series [1] was determined as 0. The compound further gave an NUDT7 in series [2] of 0. In series [3], this compound gave a PCAF of 0. In addition, the viability at 48 h, 10 µM is 99.9% in series [4], 118% in series [5] and 106% in series [6].

For the compound `O=C(CCl)Nc1ccc2c(c1)OC1(CCCC1)O2` [PCM-0102801], the BSA in series [1] is 0. The NUDT7 in series [2] stood at 0.1. Further, in series [3], the PCAF was found to be 0. Besides, the viability at 48 h, 10 µM came to 8.5% in series [4], 59.7% in series [5] and 2.8% in series [6].

Take `Cc1ccc(C(=O)NNC(=O)CCl)cc1` [PCM-0102924]: the BSA in series [1] was 0. Further, the NUDT7 in series [2] is on record as 0. This compound also returned a PCAF in series [3] of 0. For the same compound, the viability at 48 h, 10 µM in series [4] turned out to be 97.6%; in series [5] it was 123%; in series [6], 268%.

`CC1CCN(c2ccc(NC(=O)CCl)cc2)CC1.Cl` [PCM-0102235] showed a BSA in series [1] of 0. This compound gave an NUDT7 in series [2] of 0. The PCAF in series [3] is listed as 0. In addition, the viability at 48 h, 10 µM in series [4] was found to be 21.9%; in series [5] it was 48.3%; in series [6] it was 18.9%.

In turn, `CC(=O)NC1CCCN(C(=O)CCl)C1` (stereo not drawn) [PCM-0102934] registered a BSA in series [1] of 0. The compound further registered an NUDT7 in series [2] of 0. The PCAF in series [3] is 0. The viability at 48 h, 10 µM in series [4] was 100%; in series [5], 90%; in series [6], 81.8%.

In the case of `Cc1cccc([N+](=O)[O-])c1NC(=O)CCl` [PCM-0102176], the BSA in series [1] is 0. The NUDT7 in series [2] is 0.22. Further, the PCAF in series [3] worked out at 0. The viability at 48 h, 10 µM in series [4] came out at 85.3%; in series [5], 71.7%; in series [6], 77.5%.

Compound `CC1CCCCN1C(=O)CCl` (stereo not drawn) [PCM-0102434] displayed a BSA in series [1] of 0. Besides, the NUDT7 in series [2] came to 0. Also, in series [3], the PCAF is listed as 0. In addition, the viability at 48 h, 10 µM in series [4] was 89.1%; in series [5], 82.7%; in series [6], 71.3%.

In series [1], `Cc1ccc(NC(=O)CCl)c(C)c1` [PCM-0103041] displayed a BSA of 0. Also, the NUDT7 in series [2] worked out at 0. The PCAF in series [3] is 0. Besides, the results for the viability at 48 h, 10 µM in series [4], in series [5] and in series [6] were 75.7%, 70.5% and 49.9%, respectively.

`CN(C)c1ccc(NC(=O)CCl)cc1.Cl` [PCM-0102859]: the BSA in series [1] was 0.22. In series [2], this compound gave an NUDT7 of 0. The PCAF in series [3] is listed as 0. Further, the viability at 48 h, 10 µM in series [4] turned out to be 105%; in series [5], 110%; in series [6] it was 87%.

Compound `Cc1ccc(NC(=O)CCl)c(Cl)c1` [PCM-0102408] gave a BSA in series [1] of 0. Moreover, in series [2], the NUDT7 is listed as 0.18. In series [3], this compound returned a PCAF of 0. The viability at 48 h, 10 µM turned out to be 35.9% in series [4], 78.1% in series [5] and 38.1% in series [6].

`C=CC(=O)NC(C)(C)c1noc(C(C)(C)C)n1` [PCM-0102724] gave a BSA in series [1] of 0. Moreover, the NUDT7 in series [2] was determined as 0. Moreover, the PCAF in series [3] amounted to 0. Moreover, the figures for the viability at 48 h, 10 µM in series [4], in series [5] and in series [6] were 95.8%, 108% and 113%, respectively.

In series [1], `N#Cc1cnn(-c2ccccc2)c1NC(=O)CCl` [PCM-0102225] returned a BSA of 0. The same compound displayed an NUDT7 in series [2] of 0.16. Also, the PCAF in series [3] was 0. Also, the viability at 48 h, 10 µM in series [4] is 99%; in series [5], 81%; in series [6], 91%.
